Consider 45 molecules from patent US9744148B2, “Kallikrein 7 inhibitors” (SIXERA PHARMA AB, priority 2014, dated 2017).

Sequence of Active human KLK7 (SCCE) (P49862 30-253): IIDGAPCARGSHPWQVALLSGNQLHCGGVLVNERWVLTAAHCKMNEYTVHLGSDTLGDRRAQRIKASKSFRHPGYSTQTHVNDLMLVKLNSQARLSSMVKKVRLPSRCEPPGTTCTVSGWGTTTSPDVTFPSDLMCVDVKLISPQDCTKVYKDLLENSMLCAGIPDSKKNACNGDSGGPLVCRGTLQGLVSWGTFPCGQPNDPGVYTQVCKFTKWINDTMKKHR

The assay has as its target Active human KLK7 (SCCE) (Homo sapiens (Human), UniProt P49862). Description: KLK7 Inhibitor Test. Type of assay: biochemical. The following applies: substrate MeO-Suc-Arg-Pro-Tyr-pNA, pH 7.2, 37° C., absorbance at 405 nm. Here is the method:
KLK7 Inhibitor Test Substrate:(MeO-Suc-[…]), acetate salt, Peptide international, lot #906841, previously named S-2586 Enzyme: […] Buffer: 10 mM NaPhospate, 0.5 M NaCl, pH 7.2 […] 10 μl of substance in DMSO was added to wells giving final concentrations of 20 μ[…], and 0.15625 μM. 40 μl of active KLK7 (SCCE) (diluted to 12.5 μg/ml in activity buffer) was added all wells except blank to which activity buffer was added. […] The mean value V of each sample was calculated (n=2 for the substances and n=4 for the control). From the values of V the % of total activity was calculated as (Vinhibitor/Vcontrol (no inhibitor))×100. Plotting and calculation was then done in originPro. % of total activity (y) was plotted vs. log [inhibitor] (log x) and a function of dose response y=A1+(A2-A1)/(1+10^((LOG(x0)-x)*p)) where A1=Bottom platue, A2=Top platue, x0=EC50 and p=Hill slope was fitted to the curve. […] The IC50 values were used to identify KLK7 inhibitors according to the invention.
For orientation: IC50 means the concentration that inhibits the measured activity by half. Lower therefore signals greater potency. With `CCCCC(OC(=O)C(c1ccccc1)c1ccccc1)C(=O)Nc1cc(C)on1` (stereo not drawn) [Compound 27], it took 330 nM to reach half-maximal inhibition (IC50).

`COc1ccc(NC(=O)COC(=O)Cc2ccc(Cl)cc2)cc1` [Compound 40] registered a half-maximal inhibitory concentration (IC50) of 550 nM.

Take `COc1ccc(NC(=O)C(OC(=O)Cc2ccc(Cl)cc2)c2ccccc2)cc1` (stereo not drawn) [Compound 13, [2-(4-methoxyanilino)-2-oxo-1-phenyl-ethyl] 2-(4-chlorophenyl)acetate]: 170 nM corresponded to half-maximal inhibition (IC50).

Molecule `Cc1cc(NC(=O)COC(=O)C(c2ccccc2)c2ccccc2)no1` [Compound 86] had an IC50 of 6640 nM.

`Cc1cc(NC(=O)C(C)OC(=O)C(c2ccccc2)c2ccccc2)no1` (stereo not drawn) [Compound 47, [1-methyl-2-[(5-methylisoxazol-3-yl)amino]-2-oxo-ethyl] 2,2-diphenylacetate]: the midpoint of inhibition, the IC50, lay at 740 nM.

`Cc1cc(NC(=O)C(OC(=O)C(NC(=O)c2ccccc2)c2ccccc2)C(C)C)no1` (stereo not drawn) [Compound 75, [2-methyl-1-[(5-methylisoxazol-3-yl)carbamoyl]propyl] 2-benzamido-2-phenyl-acetate] had an IC50 of 3260 nM.

For the molecule `CCC(OC(=O)C(CCSC)NC(=O)c1ccccc1)C(=O)Nc1cc(C)on1` (stereo not drawn) [Compound 82], the IC50 is 5500 nM.

For the molecule `COc1ccc(CC(=O)OC(C)C(=O)Nc2ccccc2)cc1` (stereo not drawn) [Compound 21], the IC50 stood at 260 nM.

Molecule `CCC(OC(=O)Cc1ccc(OC)cc1)C(=O)Nc1cc(C)on1` (stereo not drawn) [Compound 12, 1-[(5-methylisoxazol-3-yl)carbamoyl]propyl 2-(4-methoxyphenyl) acetate] yielded a concentration for half-maximal inhibition (IC50) of 150 nM.

`COc1ccc(NC(=O)C(OC(=O)CCC2CCCC2)c2ccccc2)cc1` (stereo not drawn) [Compound 19, [2-(4-methoxyanilino)-2-oxo-1-phenyl-ethyl] 3-cyclopentylpropanoate] showed a 50% inhibitory concentration (IC50) of 230 nM.

Molecule `CC(OC(=O)CCC1CCCC1)C(=O)Nc1ccccc1` (stereo not drawn) [Compound 31, (2-anilino-1-methyl-2-oxo-ethyl) 3-cyclopentylpropanoate] had an IC50 of 370 nM.

Molecule `CC(OC(=O)CCC1CCCC1)C(=O)Nc1ccc(F)cc1` (stereo not drawn) [Compound 22] displayed an IC50 of 260 nM.

The molecule `CCC(OC(=O)Cc1ccc(OC)c(OC)c1)C(=O)Nc1cc(C)on1` (stereo not drawn) [Compound 41, 1-[(5-methylisoxazol-3-yl)carbamoyl]propyl 2-(3,4-dimethoxyphenyl)acetate] registered a concentration for half-maximal inhibition (IC50) of 580 nM.

`COc1ccc(NC(=O)C(C)OC(=O)Cc2ccc(Cl)cc2)cc1` (stereo not drawn) [Compound 4, [2-(4-methoxyanilino)-1-methyl-2-oxo-ethyl] 2-(4-chlorophenyl)acetate] came in with an IC50 of 80 nM.

For `COc1ccc(NC(=O)COC(=O)C(NC(=O)c2ccccc2)c2ccccc2)cc1` (stereo not drawn) [Compound 59, [2-(4-methoxyanilino)-2-oxo-ethyl] 2-benzamido-2-phenyl-acetate], the IC50 worked out at 1230 nM.

In turn, `CC[C@H](OC(=O)C(c1ccccc1)c1ccccc1)C(=O)Nc1cc(C)on1` [Compound 28] displayed an IC50 of 340 nM.

The molecule `CCC(OC(=O)Cc1ccc(Cl)cc1)C(=O)Nc1cc(C)on1` (stereo not drawn) [Compound 3, 1-[(5-methylisoxazol-3-yl)carbamoyl]propyl 2-(4-chlorophenyl)acetate] displayed an IC50 of 80 nM.

For the molecule `CCC(OC(=O)Cc1ccc(OC)cc1)C(=O)Nc1ccccc1` (stereo not drawn) [Compound 34, 1-(phenylcarbamoyl)propyl 2-(4-methoxyphenyl)acetate], the IC50 came out at 390 nM.

`Cc1cc(NC(=O)C(OC(=O)Cc2ccc(Cl)cc2)c2ccccc2)no1` (stereo not drawn) [Compound 17, [2-[(5-methylisoxazol-3-yl)amino]-2-oxo-1-phenyl-ethyl] 2-(4-chlorophenyl)acetate] came in with an IC50 of 190 nM.

Molecule `CCC(OC(=O)Cc1ccc2c(c1)OCO2)C(=O)Nc1cc(C)on1` (stereo not drawn) [Compound 26, 1-[(5-methylisoxazol-3-yl)carbamoyl]propyl 2-(1,3-benzodioxol-5-yl)acetate] came in with an IC50 of 320 nM.

For `O=C(COC(=O)Cc1ccc(Cl)cc1)Nc1ccc(F)cc1` [Compound 50], the IC50 came to 790 nM.

The molecule `CCC(OC(=O)C(c1ccccc1)c1ccccc1)C(=O)Nc1ccccc1` (stereo not drawn) [Compound 48, 1-(phenylcarbamoyl)propyl 2,2-diphenylacetate] had an IC50 of 760 nM.

`CCC(OC(=O)CCC1CCCC1)C(=O)Nc1ccc(F)cc1` (stereo not drawn) [Compound 25, 1-[(4-fluorophenyl)carbamoyl]propyl 3-cyclopentylpropanoate] returned an IC50 of 310 nM.

The molecule `COc1ccc(CC(=O)OCC(=O)Nc2ccc(F)cc2)cc1` [Compound 67] displayed an IC50 of 2280 nM.

Turning to `CCC(OC(=O)Cc1ccc(OC)cc1)C(=O)Nc1ccc(F)cc1` (stereo not drawn) [Compound 30, 1-[(4-fluorophenyl)carbamoyl]propyl 2-(4-methoxyphenyl)acetate], the half-inhibitory concentration (IC50) worked out at 360 nM.

As to `CCC(OC(=O)Cc1ccc(Cl)cc1)C(=O)Nc1ccccc1` (stereo not drawn) [Compound 9, 1-(phenylcarbamoyl)propyl 2-(4-chlorophenyl)acetate], inhibition was half-maximal at 150 nM (IC50).

In turn, `CC(OC(=O)C(c1ccccc1)c1ccccc1)C(=O)Nc1ccccc1` (stereo not drawn) [Compound 53] yielded a half-inhibitory concentration (IC50) of 1100 nM.

In the case of `COc1ccc(CC(=O)OCC(=O)Nc2cc(C)on2)cc1` [Compound 74], half-maximal inhibition (IC50) was put at 3050 nM.

As to `CCC(OC(=O)Cc1ccc(OC)cc1)C(=O)Nc1ccc(OC)cc1` (stereo not drawn) [Compound 24, 1-[(4-methoxyphenyl)carbamoyl]propyl 2-(4-methoxyphenyl)acetate], the IC50 was found to be 280 nM.

Regarding `CC(OC(=O)C(NC(=O)c1ccccc1)c1ccccc1)C(=O)Nc1ccccc1` (stereo not drawn) [Compound 66, (2-anilino-1-methyl-2-oxo-ethyl) 2-benzamido-2-phenyl-acetate], it took 1850 nM to reach half-maximal inhibition (IC50).

Regarding `O=C(Cc1ccc(Cl)cc1)OC(C(=O)Nc1ccc(F)cc1)c1ccccc1` (stereo not drawn) [Compound 29], the midpoint of inhibition, the IC50, lay at 350 nM.

For `CCC(OC(=O)Cc1ccc(OC)cc1)C(=O)Nc1cc(C)on1` (stereo not drawn) [Compound 23, 1-[(5-methylisoxazol-3-yl)carbamoyl]propyl 2-(4-methoxyphenyl)acetate], the IC50 is 270 nM.

Take `O=C(COC(=O)CCC1CCCC1)Nc1ccccc1` [Compound 55]: the IC50 was 1110 nM.

The molecule `Cc1cc(NC(=O)C(OC(=O)C(c2ccccc2)c2ccccc2)C(C)C)no1` (stereo not drawn) [Compound 79, [2-methyl-1-[(5-methylisoxazol-3-yl)carbamoyl]propyl] 2,2-diphenylacetate] returned an IC50 of 4560 nM.

As to `CC(C)C(OC(=O)Cc1ccc(Cl)cc1)C(=O)Nc1ccccc1` (stereo not drawn) [Compound 91, [2-methyl-1-(phenylcarbamoyl)propyl] 2-(4-chlorophenyl)acetate], the IC50 amounted to 4100 nM.

Turning to `Cc1cc(NC(=O)COC(=O)Cc2ccc(Cl)cc2)no1` [Compound 81, [2-[(5-methylisoxazol-3-yl)amino]-2-oxo-ethyl] 2-(4-chlorophenyl)acetate], the IC50 is 5000 nM.

`CCC(OC(=O)C(NC(=O)c1ccccc1)c1ccccc1)C(=O)Nc1ccc(OC)cc1` (stereo not drawn) [Compound 64, 1-[(4-methoxyphenyl)carbamoyl]propyl 2-benzamido-2-phenyl-acetate]: the half-inhibitory concentration (IC50) was found to be 1700 nM.

With `Cc1cc(NC(=O)COC(=O)C(NC(=O)c2ccccc2)c2ccccc2)no1` (stereo not drawn) [Compound 60, [2-[(5-methylisoxazol-3-yl)amino]-2-oxo-ethyl] 2-benzamido-2-phenyl-acetate], the IC50 was found to be 1470 nM.

Regarding `O=C(COC(=O)C(NC(=O)c1ccccc1)c1ccccc1)Nc1ccccc1` (stereo not drawn) [Compound 62, (2-anilino-2-oxo-ethyl) 2-benzamido-2-phenyl-acetate], inhibition was half-maximal at 1560 nM (IC50).

In turn, `O=C(Cc1ccc(Cl)cc1)OC(C(=O)Nc1ccccc1)c1ccccc1` (stereo not drawn) [Compound 32, (2-anilino-2-oxo-1-phenyl-ethyl) 2-(4-chlorophenyl)acetate] came in with an IC50 of 380 nM.

Molecule `O=C(CCC1CCCC1)OC(C(=O)NCc1ccccc1)c1ccccc1` (stereo not drawn) [Compound 37, [2-(benzylamino)-2-oxo-1-phenyl-ethyl] 3-cyclopentylpropanoate] gave an IC50 of 460 nM.

In turn, `COc1ccc(CC(=O)OC(C)C(=O)Nc2ccc(OC)cc2)cc1` (stereo not drawn) [Compound 15, [2-(4-methoxyanilino)-1-methyl-2-oxo-ethyl] 2-(4-methoxyphenyl)acetate] registered a half-maximal inhibitory concentration (IC50) of 180 nM.

In turn, `Cc1cc(NC(=O)C(OC(=O)C(c2ccccc2)c2ccccc2)c2ccccc2)no1` (stereo not drawn) [Compound 54, [2-[(5-methylisoxazol-3-yl)amino]-2-oxo-1-phenyl-ethyl] 2,2-diphenylacetate] yielded an IC50 of 1100 nM.

`CCC(OC(=O)C(CC(C)C)NC(=O)c1ccccc1)C(=O)Nc1cc(C)on1` (stereo not drawn) [Compound 89]: 9100 nM corresponded to half-maximal inhibition (IC50).

In turn, `COc1ccc(CC(=O)OCC(=O)Nc2ccccc2)cc1` [Compound 77] yielded an IC50 of 3890 nM.
